The source of these data is patent US11203571B2, “Sulfonamides as modulators of sodium channels” (VERTEX PHARMACEUTICALS INCORPORATED, priority 2013, dated 2021).

The target of one data set is human Nav1.8 (Homo sapiens (Human), UniProt Q9Y5Y9). In words: E-VIPR optical membrane potential assay with electrical stimulation. It counts as cell-based. The conditions noted are these: HEK cells expressing human Nav1.8. In short, it runs like this: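 HEK cells expressing human Nav1.8 were loaded with CC2-DMPE (8 μM) and DiSBAC6(3) (2.5 μM), then given compound for 20-35 min at room temperature (0.625% DMSO). Cells received a 10-s current-controlled electrical stimulus. Response was the stimulated/baseline 460/580 nm emission ratio (Rf/Ri), with tetracaine (125 μM) as positive control.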

A short description of data set [1]: Human liver microsome assay. The conditions noted are these: 1 uM substrate, 0.5 mg/mL liver microsome, 2 mM NADPH, 37° C., referenced against time zero control. It counts as in vitro ADME. In short, it runs like this: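 Pooled human liver microsomes (0.5 mg/mL) with 1 uM substrate (0.2% DMSO), 2 mM NADPH, 0.1 M phosphate, shaken 30 min at 37° C. Quenched with cold acetonitrile; parent quantified by LC/MS/MS. Value is % substrate remaining at 30 min versus a time-zero control without NADPH.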
In general terms: Microsomes from liver hold many membrane-bound enzymes, among them those of drug oxidation.

Chain of human Nav1.8 (Q9Y5Y9 whole entry): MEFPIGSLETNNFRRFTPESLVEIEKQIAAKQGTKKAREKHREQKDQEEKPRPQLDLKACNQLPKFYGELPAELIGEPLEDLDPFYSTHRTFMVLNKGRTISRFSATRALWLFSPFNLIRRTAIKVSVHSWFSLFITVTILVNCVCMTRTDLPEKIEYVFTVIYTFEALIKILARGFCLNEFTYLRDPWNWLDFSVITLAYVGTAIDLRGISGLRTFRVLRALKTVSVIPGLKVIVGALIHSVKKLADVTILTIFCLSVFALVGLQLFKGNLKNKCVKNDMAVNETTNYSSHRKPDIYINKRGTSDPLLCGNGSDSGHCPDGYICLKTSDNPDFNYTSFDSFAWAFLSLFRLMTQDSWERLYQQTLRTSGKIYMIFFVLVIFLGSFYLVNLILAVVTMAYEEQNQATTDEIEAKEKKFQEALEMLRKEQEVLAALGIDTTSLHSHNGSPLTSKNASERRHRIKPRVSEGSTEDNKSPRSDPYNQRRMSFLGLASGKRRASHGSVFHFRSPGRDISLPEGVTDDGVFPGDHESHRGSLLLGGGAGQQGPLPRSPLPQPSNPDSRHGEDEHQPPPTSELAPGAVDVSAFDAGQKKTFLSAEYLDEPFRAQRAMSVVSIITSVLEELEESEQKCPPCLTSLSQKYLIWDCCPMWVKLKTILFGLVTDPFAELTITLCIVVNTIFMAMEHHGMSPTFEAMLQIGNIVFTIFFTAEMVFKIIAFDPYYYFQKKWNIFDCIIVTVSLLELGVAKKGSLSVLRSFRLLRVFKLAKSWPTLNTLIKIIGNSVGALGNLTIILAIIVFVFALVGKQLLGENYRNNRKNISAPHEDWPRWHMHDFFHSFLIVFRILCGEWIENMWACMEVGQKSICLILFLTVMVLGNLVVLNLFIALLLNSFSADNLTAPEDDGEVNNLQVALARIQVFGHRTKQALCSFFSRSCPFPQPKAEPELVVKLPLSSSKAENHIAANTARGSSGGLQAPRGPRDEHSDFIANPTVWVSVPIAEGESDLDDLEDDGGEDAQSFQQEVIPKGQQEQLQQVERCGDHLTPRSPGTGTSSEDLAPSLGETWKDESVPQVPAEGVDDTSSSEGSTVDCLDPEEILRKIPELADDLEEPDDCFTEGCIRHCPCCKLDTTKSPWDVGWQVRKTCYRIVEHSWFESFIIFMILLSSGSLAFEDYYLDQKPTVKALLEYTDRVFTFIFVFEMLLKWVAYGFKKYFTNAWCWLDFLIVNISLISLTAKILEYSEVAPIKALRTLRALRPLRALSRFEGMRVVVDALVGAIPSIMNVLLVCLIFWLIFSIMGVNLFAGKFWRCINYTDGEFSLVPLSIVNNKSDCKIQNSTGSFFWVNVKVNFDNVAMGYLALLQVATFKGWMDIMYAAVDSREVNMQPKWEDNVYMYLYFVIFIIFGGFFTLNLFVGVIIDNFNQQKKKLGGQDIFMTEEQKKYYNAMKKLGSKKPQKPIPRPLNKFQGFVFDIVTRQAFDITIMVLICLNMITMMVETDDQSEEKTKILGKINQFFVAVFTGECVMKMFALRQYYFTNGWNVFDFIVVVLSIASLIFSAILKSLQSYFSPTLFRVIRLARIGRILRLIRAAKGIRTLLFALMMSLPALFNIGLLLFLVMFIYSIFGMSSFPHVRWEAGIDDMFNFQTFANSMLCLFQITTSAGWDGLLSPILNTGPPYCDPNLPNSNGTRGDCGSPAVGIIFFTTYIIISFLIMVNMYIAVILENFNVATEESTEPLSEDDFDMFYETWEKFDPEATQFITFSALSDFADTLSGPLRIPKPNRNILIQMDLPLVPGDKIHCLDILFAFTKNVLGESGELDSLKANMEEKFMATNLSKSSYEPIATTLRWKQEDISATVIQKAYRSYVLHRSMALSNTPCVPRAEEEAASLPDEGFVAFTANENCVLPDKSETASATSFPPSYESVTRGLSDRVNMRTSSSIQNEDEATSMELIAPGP

One may read the IC50 as the concentration at which inhibition is half-maximal. Regarding `COc1ccc(Oc2cc(OC(F)(F)F)ccc2C(=O)Nc2cccc(S(N)(=O)=O)c2)c(Cl)c1` [Compound 62, 2-(2-chloro-4-methoxyphenoxy)-N-(3-sulfamoylphenyl)-4-(trifluoromethoxy)benzamide], 16 nM corresponded to half-maximal inhibition against human Nav1.8 (IC50). In data set [1], the “HLM: percent unchanged after 30 min” value is 81%.
Taken in the same sequence, the figures for `NS(=O)(=O)c1cccc(NC(=O)c2ccc(OC(F)(F)F)cc2Oc2ccccc2Cl)c1` [Compound 63, 2-(2-chlorophenoxy)-N-(3-sulfamoylphenyl)-4-(trifluoromethoxy)benzamide] were 27 nM and 92%.
For `NS(=O)(=O)c1cccc(NC(=O)c2ccc(OC(F)(F)F)cc2Oc2ccccc2OC(F)F)c1` [Compound 64, 2-(2-(difluoromethoxy)phenoxy)-N-(3-sulfamoylphenyl)-4-(trifluoromethoxy)benzamide] the same measures were 22 nM and 96%.
For `COc1cc(Cl)ccc1Oc1cc(OC(F)(F)F)ccc1C(=O)Nc1cccc(S(N)(=O)=O)c1` [Compound 65, 2-(4-chloro-2-methoxyphenoxy)-N-(3-sulfamoylphenyl)-4-(trifluoromethoxy)benzamide] the same measures were 22 nM and 101%.
At human Nav1.8, `COc1c(Cl)cccc1Oc1cc(OC(F)(F)F)ccc1C(=O)Nc1cccc(S(N)(=O)=O)c1` [Compound 66, 2-(3-chloro-2-methoxyphenoxy)-N-(3-sulfamoylphenyl)-4-(trifluoromethoxy)benzamide] showed a half-inhibitory concentration (IC50) of 7 nM. The “HLM: percent unchanged after 30 min” value in data set [1] is 89%.
Taken in the same sequence, the figures for `COc1ccc(Oc2cc(C(F)(F)F)ccc2C(=O)Nc2cccc(S(N)(=O)=O)c2)cc1Cl` [Compound 67, 2-(3-chloro-4-methoxyphenoxy)-N-(3-sulfamoylphenyl)-4-(trifluoromethyl)benzamide] were 26 nM and 91%.
The compound `COc1c(Cl)cccc1Oc1cc(C(F)(F)F)ccc1C(=O)Nc1cccc(S(N)(=O)=O)c1` [Compound 68, 2-(3-chloro-2-methoxyphenoxy)-N-(3-sulfamoylphenyl)-4-(trifluoromethyl)benzamide] showed an IC50 against human Nav1.8 of 9 nM. In addition, the “HLM: percent unchanged after 30 min” value in data set [1] is on record as 80%.
Taken in the same sequence, the figures for `NS(=O)(=O)c1cccc(NC(=O)c2ccc(C(F)(F)C(F)(F)F)cc2Oc2ccc(F)cc2)c1` [Compound 69, 2-(4-fluorophenoxy)-4-(perfluoroethyl)-N-(3-sulfamoylphenyl)benzamide] were 26 nM and 110%.
For `COc1cc(F)ccc1Oc1cc(C(F)(F)C(F)(F)F)ccc1C(=O)Nc1cccc(S(N)(=O)=O)c1` [Compound 70, 2-(4-fluoro-2-methoxyphenoxy)-4-(perfluoroethyl)-N-(3-sulfamoylphenyl)benzamide] the same measures were 13 nM and 87%.
For `COc1cc(Cl)ccc1Oc1cc(C(F)(F)C(F)(F)F)ccc1C(=O)Nc1cccc(S(N)(=O)=O)c1` [Compound 71, 2-(4-chloro-2-methoxyphenoxy)-4-(perfluoroethyl)-N-(3-sulfamoylphenyl)benzamide] the same measures were 28 nM and 81%.
`COc1ccc(Oc2cc(C(F)(F)C(F)(F)F)ccc2C(=O)Nc2cccc(S(N)(=O)=O)c2)c(Cl)c1` [Compound 72, 2-(2-chloro-4-methoxyphenoxy)-4-(perfluoroethyl)-N-(3-sulfamoylphenyl)benzamide] showed an IC50 against human Nav1.8 of 20 nM. The “HLM: percent unchanged after 30 min” value in data set [1] worked out at 67%.
On human Nav1.8, `NS(=O)(=O)c1cccc(NC(=O)c2ccc(C(F)(F)F)cc2Oc2ccccc2Cl)c1` [Compound 73, 2-(2-chlorophenoxy)-N-(3-sulfamoylphenyl)-4-(trifluoromethyl)benzamide] gave an IC50 of 26 nM. Further, in data set [1], the “HLM: percent unchanged after 30 min” value was determined as 95%.
`NS(=O)(=O)c1cccc(NC(=O)c2c(Oc3ccccc3Cl)cccc2C(F)(F)F)c1` [Compound 74, 2-(2-chlorophenoxy)-N-(3-sulfamoylphenyl)-6-(trifluoromethyl)benzamide] gave an IC50 against human Nav1.8 of 15 nM. For the same compound, in data set [1], the “HLM: percent unchanged after 30 min” value came out at 102%.
Taken in the same sequence, the figures for `COc1ccc(Oc2cccc(C(F)(F)F)c2C(=O)Nc2cccc(S(N)(=O)=O)c2)c(Cl)c1` [Compound 75, 2-(2-chloro-4-methoxyphenoxy)-N-(3-sulfamoylphenyl)-6-(trifluoromethyl)benzamide] were 5 nM and 62%.
At human Nav1.8, `COc1cc(F)ccc1Oc1cc(Cl)c(Cl)cc1C(=O)Nc1cccc(S(N)(=O)=O)c1` [Compound 77, 4,5-dichloro-2-(4-fluoro-2-methoxyphenoxy)-N-(3-sulfamoylphenyl)benzamide] had an IC50 of 1 nM. In data set [1], the “HLM: percent unchanged after 30 min” value was 95%.
For `NS(=O)(=O)c1cccc(NC(=O)c2cc(Cl)c(Cl)cc2Oc2ccc(F)cc2)c1` [Compound 78, 4,5-dichloro-2-(4-fluorophenoxy)-N-(3-sulfamoylphenyl)benzamide] the same measures were 8 nM and 104%.
Taken in the same sequence, the figures for `COc1ccc(Oc2cc(Cl)c(Cl)cc2C(=O)Nc2cccc(S(N)(=O)=O)c2)cc1F` [Compound 79, 4,5-dichloro-2-(3-fluoro-4-methoxyphenoxy)-N-(3-sulfamoylphenyl)benzamide] were 4 nM and 91%.
As for `COc1cc(Cl)ccc1Oc1cc(Cl)c(Cl)cc1C(=O)Nc1cccc(S(N)(=O)=O)c1` [Compound 80, 4,5-dichloro-2-(4-chloro-2-methoxyphenoxy)-N-(3-sulfamoylphenyl)benzamide], the IC50 at human Nav1.8 was determined as 4 nM. Also, the “HLM: percent unchanged after 30 min” value in data set [1] came to 108%.
As for `COc1ccc(Oc2cc(Cl)c(Cl)cc2C(=O)Nc2cccc(S(N)(=O)=O)c2)c(F)c1` [Compound 81, 4,5-dichloro-2-(2-fluoro-4-methoxyphenoxy)-N-(3-sulfamoylphenyl)benzamide], the midpoint of inhibition on human Nav1.8, the IC50, lay at 8 nM. In addition, in data set [1], the “HLM: percent unchanged after 30 min” value is recorded as 88%.
Taken in the same sequence, the figures for `COc1ccc(Oc2cc(Cl)c(Cl)cc2C(=O)Nc2cccc(S(N)(=O)=O)c2)c(Cl)c1` [Compound 82, 4,5-dichloro-2-(2-chloro-4-methoxyphenoxy)-N-(3-sulfamoylphenyl)benzamide] were 6 nM and 77%.
The compound `Cc1cc(F)ccc1Oc1cc(Cl)c(Cl)cc1C(=O)Nc1cccc(S(N)(=O)=O)c1` [Compound 83, 4,5-dichloro-2-(4-fluoro-2-methylphenoxy)-N-(3-sulfamoylphenyl)benzamide] registered an IC50 on human Nav1.8 of 5 nM. In addition, the “HLM: percent unchanged after 30 min” value in data set [1] is listed as 93%.
In the case of `COc1ccc(Oc2cc(Cl)ccc2C(=O)Nc2cccc(S(N)(=O)=O)c2)c(OC)c1` [Compound 84, 4-chloro-2-(2,4-dimethoxyphenoxy)-N-(3-sulfamoylphenyl)benzamide], the IC50 at human Nav1.8 came out at 13 nM. In addition, the “HLM: percent unchanged after 30 min” value in data set [1] came out at 82%.
For `COc1ccc(Oc2cc(Cl)ccc2C(=O)Nc2cccc(S(N)(=O)=O)c2)c(Cl)c1` [Compound 86, 4-chloro-2-(2-chloro-4-methoxyphenoxy)-N-(3-sulfamoylphenyl)benzamide] the same measures were 15 nM and 82%.
Taken in the same sequence, the figures for `NS(=O)(=O)c1cccc(NC(=O)c2c(Oc3ccc(F)cc3)cc(C(F)(F)F)cc2C(F)(F)F)c1` [Compound 88, 2-(4-fluorophenoxy)-N-(3-sulfamoylphenyl)-4,6-bis(trifluoromethyl)benzamide] were 7 nM and 105%.
For `COc1cc(F)ccc1Oc1cc(C(F)(F)F)cc(C(F)(F)F)c1C(=O)Nc1cccc(S(N)(=O)=O)c1` [Compound 89, 2-(4-fluoro-2-methoxyphenoxy)-N-(3-sulfamoylphenyl)-4,6-bis(trifluoromethyl)benzamide] the same measures were 1 nM and 87%.
Compound `COc1ccc(Oc2cc(C(F)(F)F)cc(C(F)(F)F)c2C(=O)Nc2cccc(S(N)(=O)=O)c2)cc1F` [Compound 90, 2-(3-fluoro-4-methoxyphenoxy)-N-(3-sulfamoylphenyl)-4,6-bis(trifluoromethyl)benzamide] had a 50% inhibitory concentration (IC50) against human Nav1.8 of 7 nM. Further, the “HLM: percent unchanged after 30 min” value in data set [1] turned out to be 92%.
For `COc1ccc(Oc2cc(C(F)(F)F)cc(C(F)(F)F)c2C(=O)Nc2cccc(S(N)(=O)=O)c2)c(F)c1` [Compound 91, 2-(2-fluoro-4-methoxyphenoxy)-N-(3-sulfamoylphenyl)-4,6-bis(trifluoromethyl)benzamide] the same measures were 7 nM and 69%.
For `COc1ccc(F)cc1Oc1cc(C(F)(F)F)cc(C(F)(F)F)c1C(=O)Nc1cccc(S(N)(=O)=O)c1` [Compound 92, 2-(5-fluoro-2-methoxyphenoxy)-N-(3-sulfamoylphenyl)-4,6-bis(trifluoromethyl)benzamide] the same measures were 16 nM and 113%.
For `Cc1cc(F)ccc1Oc1cc(C(F)(F)F)cc(C(F)(F)F)c1C(=O)Nc1cccc(S(N)(=O)=O)c1` [Compound 93, 2-(4-fluoro-2-methylphenoxy)-N-(3-sulfamoylphenyl)-4,6-bis(trifluoromethyl)benzamide] the same measures were 2 nM and 96%.
At human Nav1.8, `NS(=O)(=O)c1cccc(NC(=O)c2c(Cl)cc(Cl)cc2Oc2ccc(F)cc2)c1` [Compound 94, 2,4-dichloro-6-(4-fluorophenoxy)-N-(3-sulfamoylphenyl)benzamide] returned a half-maximal inhibitory concentration (IC50) of 5 nM. Further, the “HLM: percent unchanged after 30 min” value in data set [1] was determined as 97%.
